Results published in patent US20020161018A1, “Enhancement of the potency and efficacy of local anesthetics with ibutilide and other methanesulfonamide drugs” (priority 2001, published 2002).
Entries after “also recorded” stand apart in the source; their conditions may differ. Structures can show the parent of a compound that is named as a salt. Marks after values point to notes of the source that are not given here.

Legend:
male ICR mice [1] = assay: Hot-plate paw-withdrawal test after popliteal (peri-sciatic nerve block) injection; type: in vivo; settings: for local anesthesia of the drug alone in the presence of 1:200,000 epinephrine: 0.125% bupivacaine or ibutilide (3.9 nmoles), each with 1:200,000 epinephrine; for local anesthesia of the drug alone (paw-withdrawal latency): 0.5% bupivacaine or ibutilide (3.9 nmoles) with vehicle, 60-min time-course, or bupivacaine dose-response at 10-min; for Potency ratio (95% C.L.): 10-min; for % Bupivacaine ED50 (95% C.L.): tested 10-min later
Description: Animals: Male ICR mice (25-30 gm) were obtained from Harlan Sprague Dawley. The mice were housed in groups of four to six and kept on a 12-h light/12-h dark cycle. Mice were tested during the light cycle; and the original groupings were maintained (i.e., mice were not recombined into new groups or isolated) to decrease infighting and consequent stress that could confound the results. Behavioral Procedures: Following the procedure of Leszczynska and Kau (1992), each mouse was placed on a ¼inch wire mesh screen, which was then inverted; a mouse with no motor defects walks in a characteristic circular pattern, grasping the mesh with each paw and then letting go. Mice that could not walk normally at baseline were not used for testing. […] Baseline paw withdrawal latencies ranged between 2- to 3-sec. After collecting baseline data, the mice were injected with vehicle, ibutilide, or bupivacaine mixed with vehicle or ibutilide. At the appropriate times, motor scores and test paw withdrawal latencies were obtained. A 20-sec cut-off was employed to prevent tissue damage on the hot-plate test. Injection Procedures: Each mouse was injected with drug solution using a 30 gauge,½ inch needle attached to a 1 ml syringe (needle and syringe from Becton Dickinson). The animals were gently restrained, while the limb to be injected was extended to expose the popliteal space, which is behind the knee of the mouse. The needle was inserted in the popliteal space, and 0.05 ml of drug solutions injected. The nerve bundle of the sciatic nerve passes through the popliteal space. Thus, the limb and paw distal to the injection is effectively anesthetized. The motor and sensory tests were then repeated at 5-min intervals for a 1-h period. […] Some mice could place their paw on the screen, but could not grasp the screen with their digits; this was determined to be an intermediate phase. The motor block was determined to be resolved when the mouse could walk on the inverted screen using both the leg and paw. Sensory blockade was assessed by measuring in seconds, the time the bupivacaine-injected paw remained on hot-plate surface before withdrawing it. The test was terminated if the cut-off of 20-sec occurred during the test procedure. For time-course studies, two-factor repeated measures analysis of variance followed by the post hoc Tukey's test was used to assess for significant increases in paw withdrawal latencies compared to baseline. In addition, the effect of ibutilide to enhance bupivacaine was assessed, and compared with the appropriate controls at each time point during the 60-min test period. For dose-response curves, the data was converted to the percentage of maximum possible effect, which was calculated as: % MPE=[(Test−Baseline)/(20 −Baseline)]×100. […] The absence of overlapping confidence limits was used to indicate significant differences in ED50 values between dose-response curves. Potency-ratio values with 95% confidence limits were calculated by the method of Colquhoun (1971). Drugs: Sterile isotonic saline was used to dissolve and dilute drug solutions. Bupivacaine HCl was purchased from the MCV Hospitals Pharmacy (Winthrop Pharmaceuticals, NY, N.Y. ). To assure consistency, the same vial of bupivacaine was used for all injections involving bupivicaine. The concentration was varied by either diluting with normal saline, or by freeze-drying and then reconstituting the material with normal saline. The same vial of bupivacaine with 1:200,000 epinephrine was used for the second set of experiments. The epinephrine dose was adjusted by adding epinephrine to maintain a constant concentration of epinephrine 2.76×10^−5 M. Ibutilide fumarate was purchased from the MCV Hospitals Pharmacy (Pharmacia & Upjohn Company of Kalamazoo, Mich.). The concentration of ibutilide was held constant at 3.9 nanomoles (nmoles) per mouse. Enhancement of Bupivacaine HCl with Ibutilide. Experiments were conducted to determine whether ibutilide would enhance the local anesthetic effects of bupivacaine. […]

male ICR mice [2] = assay: Radiant heat tail-flick test after subcutaneous infiltration of the tail (infiltration anesthesia); type: in vivo; settings: for % Bupivacaine ED50 (95% C.L.): bupivacaine mixed with vehicle or sotalol (10 nmoles), infiltrated in mouse tail
Description: Methods of handling mice. Male ICR mice (Harlan Laboratories, Indianapolis, Ind.) weighing 27.0±0.4 g were housed 6 to a cage in animal care quarters maintained at 22±2 ° C. on a 12-h light-dark cycle. Food and water were available ad libitum. The mice were brought to a test room (22±2° C. , 12-h light-dark cycle), marked for identification and allowed 16-h to recover from transport and handling. The Institutional Animal Care and Use Committee at the Medical College of Virginia Campus of Virginia Commonwealth University approved all the procedures in this study.
The tail-flick test. The tail-flick test used to assess for infiltration anesthesia was developed by D'Amour and Smith (1941) and modified by Dewey et al (1970). The tail-flick device is designed to focus a light beam onto the site infiltrated with local anesthetic, without exposing non-injected tissue to the noxious radiant heat stimulus. The intensity was adjusted to yield baseline latencies of between 2- to 4-sec. A single baseline latency was obtained approximately 15-min before the mice were injected with drug. A 10-sec cut-off was used to prevent any potential tissue damage. In experiments testing for potential underlying infiltration anesthesia that was not observed with the higher heat stimulus, the intensity was reduced to yield baseline latencies of about 6-sec. A 12-sec cut-off was used in these experiments.
Subcutaneous infiltration of bupivacaine. Before infiltration of vehicle or drug, baseline tail-flick latencies were obtained by exposing the tail to noxious radiant heat at the site to be infiltrated with drug. The baseline average over the entire study was 3.1±0.1 sec. The mice were then restrained to allow us unencumbered access to the tail. A 26-gauge ⅝ needle was inserted approximately 1.0 to 1.3 cm longitudinally under the skin in the subcutaneous space in the dorsal aspect of the tail. The needle was attached to a 1-ml syringe (Becton Dickinson, Franklin Lakes, N.J. ) pre-filled with drug solution. A […] volume of drug solution was infiltrated, and the needle was left in place for 5-s to prevent leakage of injectate from the site after removing the needle. During injection, the solution dispersed around the circumference of the tail in a rostral-caudal direction of about 2- to 3-cm. A slight blanching of the skin that reversed within 1 to 2 min indicated the extent of the spread of solution. A non-toxic marking pen was used to mark the most rostral spread of solution. Tail-flick testing was conducted below the area marked on the tail. These methods are detailed in a previous report (Smith et al. 1997).
Experimental design. Sotalol was solubilized and then mixed with bupivacaine HCl for co-infiltration of the tail. The influence of increasing concentrations of sotalol on the ED50 dose of bupivacaine was also examined. Both baseline and test tail-flick latencies from each animal were converted into the percentage of maximum possible effect (% MPE) according to the method of Harris and Pierson (1964), which was calculated as: % MPE=[(test−baseline)/(10−baseline)]×100. The ordinate was % MPE, while the abscissa was expressed as the dose of sotalol. Complete bupivacaine dose-response curves were generated in the absence and presence of sotalol (10 nmole) for calculation of ED50 and potency ratio values. The ordinate was % MPE, while the abscissa was expressed as the % bupivacaine dose.
Statistical analyses: The Tail-Flick Latency (sec) values were analyzed with one factor ANOVA for experiments in which different concentrations of sotalol were tested with an ED50 dose of bupivacaine. A statistically significant F-value led to post hoc comparisons using the Tukey's test. The % MPE values for dose-response curves were analyzed in the following manner. ED50 values were calculated using least squares linear regression analysis of % MPE values followed by calculation of 95% confidence limits (C.L.) according to the method of Bliss (1967). […]

[3] = bupivacaine containing 1:200,000 epinephrine mixed with vehicle or ibutilide (3.9 nmoles), popliteal space, hot-plate
[4] = hot-plate 56° C., bupivacaine mixed with vehicle or ibutilide (3.9 nmoles), injected in popliteal space, no epinephrine

`CCCCCCCN(CC)CCCC(O)c1ccc(NS(C)(=O)=O)cc1` (racemic) [Ibutilide, (±) N-[4-[4-(Ethylheptylamino)-1-hydroxybutyl]phenyl]methanesulfonamide (E)-2-butenedioate (2:1) salt] was tested, and the “local anesthesia of the drug alone in the presence of 1:200,000 epinephrine” value (male ICR mice [1]; 1-h time-course) was “failed to elicit any anesthetic effects”, the “local anesthesia of the drug alone (paw-withdrawal latency)” value (male ICR mice [1]; no epinephrine) was “no anesthesia; also recorded: inactive” and the “Potency ratio (95% C.L.)” value (male ICR mice [1]; bupivacaine + 1:200,000 epinephrine + ibutilide (3.9 nmoles) vs vehicle control, hot-plate) was 6.8 (4.3 to 12.7)**. For the same molecule, the “Potency ratio (95% C.L.)” value (male ICR mice [1]; bupivacaine + ibutilide (3.9 nmoles) vs bupivacaine + vehicle, hot-plate, no epinephrine) was 2.8 (1.9 to 3.8)**, the “% Bupivacaine ED50 (95% C.L.)” value (male ICR mice [1]; [3]) was 0.05% (0.04 to 0.06)** and the “% Bupivacaine ED50 (95% C.L.)” value (male ICR mice [1]; [4]) was 0.24% (0.19 to 0.30)**. For the same molecule, the “enhancement of the local anesthetic effects of 0.5% bupivacaine” value (male ICR mice [1]; ibutilide 3.9 nmoles mixed with 0.5% bupivacaine, 60-min time-course, no epinephrine) was “markedly enhanced; also recorded: significantly increased”, the “duration of enhancement of the local anesthetic effects of 0.5% bupivacaine” value (male ICR mice [1]; ibutilide 3.9 nmoles mixed with 0.5% bupivacaine, tested every 5 min for 1-h) was 35 min and the “enhancement of the amount (efficacy) of 0.125% bupivacaine + 1:200,000 epinephrine” value (male ICR mice [1]; ibutilide 3.9 nmoles, 1-h time-course) was “greatly increased”. The “increase in relative potency of bupivacaine+1:200,000 epinephrine” value (male ICR mice [1]; in the presence of ibutilide (3.9 nmoles), hot-plate) was 6.8 fold and the “increase in potency of bupivacaine” value (male ICR mice [1]; in the presence of ibutilide (3.9 nmoles), hot-plate, no epinephrine) was 2.8 fold.

`CC(C)NCC(O)c1ccc(NS(C)(=O)=O)cc1.Cl` (stereo not shown) [Sotalol, N-[4-[1-hydroxy-2-[(1-methylethyl)amino]ethyl]phenyl]methanesulfonamide monohydrochloride] was tested, and the “Potency ratio (95% C.L.)” value (male ICR mice [2]; bupivacaine + sotalol (10 nmoles) vs bupivacaine + vehicle, tail-flick, 30-min) was 2.7 (1.6 to 4.5), the “% Bupivacaine ED50 (95% C.L.)” value (male ICR mice [2]; tail-flick 30-min later) was 0.04% (0.03 to 0.06)** and the “increase in potency of bupivacaine” value (male ICR mice [2]; in the presence of sotalol (10 nmoles), tail-flick, 30-min) was 2.7 fold. For the same molecule, the “enhancement of the anesthetic effects of an ED50 dose of bupivacaine (0.12%)” value (male ICR mice [2]; increasing doses of sotalol co-infiltrated, tail-flick 30-min later) was “enhanced in a dose-dependent fashion” and the “anesthetic effect of the drug alone” value (male ICR mice [2]; sotalol alone, tail infiltration, tail-flick 30-min later, monohydrochloride) was “inactive; also recorded: no anesthetic effects”.

For `CCCCN1CCCCC1C(=O)Nc1c(C)cccc1C` (stereo not shown) [bupivacaine], the “local anesthesia of the drug alone in the presence of 1:200,000 epinephrine” value (male ICR mice [1]; 1-h time-course) was “elicited local anesthesia”, the “local anesthesia of the drug alone (paw-withdrawal latency)” value (male ICR mice [1]; no epinephrine) was “mild level of anesthesia; also recorded: dose-dependent anesthesia” and the “% Bupivacaine ED50 (95% C.L.)” value (male ICR mice [1]; [3]) was 0.31% (0.22 to 0.44). The “% Bupivacaine ED50 (95% C.L.)” value (male ICR mice [1]; [4]) was 0.67% (0.59 to 0.77) and the “% Bupivacaine ED50 (95% C.L.)” value (male ICR mice [2]; tail-flick 30-min later) was 0.11% (0.08 to 0.15).

For `CNC[C@H](O)c1ccc(O)c(O)c1` [epinephrine], the “effect of 1:200,000 epinephrine on the efficacy of 0.125% bupivacaine” value (male ICR mice [1]; time-course experiments, hot-plate) was “increased”.
